BigSolDB 2.1

O=C1NC(=O)c2cc([N+](=O)[O-])ccc21
Conditions | solubility (mole fraction)
in 1,4-dioxane, 283.15 K | 0.0228
in 1,4-dioxane, 285.65 K | 0.0238
in 1,4-dioxane, 288.15 K | 0.0249
in 1,4-dioxane, 293.15 K | 0.0271
in 1,4-dioxane, 295.65 K | 0.0282
in 1,4-dioxane, 298.15 K | 0.0295
in 1,4-dioxane, 303.15 K | 0.0318
in 1,4-dioxane, 305.65 K | 0.0331
in 1,4-dioxane, 308.15 K | 0.0345
in 1,4-dioxane, 313.15 K | 0.0371
in 1,4-dioxane, 315.65 K | 0.0384
in 1,4-dioxane, 318.15 K | 0.0399
in 1,4-dioxane, 323.15 K | 0.0425
in 2-butanone, 273.15 K | 0.0161
in 2-butanone, 275.65 K | 0.0169
in 2-butanone, 278.15 K | 0.0177
in 2-butanone, 283.15 K | 0.0195
in 2-butanone, 285.65 K | 0.0205
in 2-butanone, 288.15 K | 0.0215
in 2-butanone, 293.15 K | 0.0234
in 2-butanone, 295.65 K | 0.0244
in 2-butanone, 298.15 K | 0.0256
in 2-butanone, 303.15 K | 0.0279
in 2-butanone, 305.65 K | 0.029
in 2-butanone, 308.15 K | 0.0302
in 2-butanone, 313.15 K | 0.0327
in 2-butanone, 315.65 K | 0.0339
in 2-butanone, 318.15 K | 0.0353
in 2-butanone, 323.15 K | 0.038
in DMF, 273.15 K | 0.0357
in DMF, 275.65 K | 0.039
in DMF, 278.15 K | 0.0425
in DMF, 283.15 K | 0.0497
in DMF, 285.65 K | 0.0535
in DMF, 288.15 K | 0.0586
in DMF, 293.15 K | 0.0682
in DMF, 295.65 K | 0.0732
in DMF, 298.15 K | 0.0789
in DMF, 303.15 K | 0.0912
in DMF, 305.65 K | 0.0976
in DMF, 308.15 K | 0.104
in DMF, 313.15 K | 0.12
in DMF, 315.65 K | 0.128
in DMF, 318.15 K | 0.137
in DMF, 323.15 K | 0.155
in acetone, 273.15 K | 0.0175
in acetone, 275.65 K | 0.0185
in acetone, 278.15 K | 0.0193
in acetone, 283.15 K | 0.0211
in acetone, 285.65 K | 0.022
in acetone, 288.15 K | 0.023
in acetone, 293.15 K | 0.025
in acetone, 295.65 K | 0.0261
in acetone, 298.15 K | 0.0271
in acetone, 303.15 K | 0.0293
in acetone, 305.65 K | 0.0305
in acetone, 308.15 K | 0.0317
in acetone, 313.15 K | 0.034
in acetone, 315.65 K | 0.0353
in acetone, 318.15 K | 0.0366
in acetone, 323.15 K | 0.0392
in acetonitrile, 273.15 K | 0.00359
in acetonitrile, 275.65 K | 0.00382
in acetonitrile, 278.15 K | 0.00403
in acetonitrile, 283.15 K | 0.00449
in acetonitrile, 285.65 K | 0.00474
in acetonitrile, 288.15 K | 0.00503
in acetonitrile, 293.15 K | 0.00555
in acetonitrile, 295.65 K | 0.00584
in acetonitrile, 298.15 K | 0.00618
in acetonitrile, 303.15 K | 0.00679
in acetonitrile, 305.65 K | 0.00709
in acetonitrile, 308.15 K | 0.00749
in acetonitrile, 313.15 K | 0.00822
in acetonitrile, 315.65 K | 0.00858
in acetonitrile, 318.15 K | 0.00894
in acetonitrile, 323.15 K | 0.00976
in benzyl alcohol, 273.15 K | 0.0134
in benzyl alcohol, 275.65 K | 0.0143
in benzyl alcohol, 278.15 K | 0.0154
in benzyl alcohol, 283.15 K | 0.0175
in benzyl alcohol, 285.65 K | 0.0188
in benzyl alcohol, 288.15 K | 0.0202
in benzyl alcohol, 293.15 K | 0.023
in benzyl alcohol, 295.65 K | 0.0245
in benzyl alcohol, 298.15 K | 0.0261
in benzyl alcohol, 303.15 K | 0.0294
in benzyl alcohol, 305.65 K | 0.0312
in benzyl alcohol, 308.15 K | 0.0331
in benzyl alcohol, 313.15 K | 0.0372
in benzyl alcohol, 315.65 K | 0.0393
in benzyl alcohol, 318.15 K | 0.0417
in benzyl alcohol, 323.15 K | 0.0466
in chloroform, 273.15 K | 0.000535
in chloroform, 275.65 K | 0.000577
in chloroform, 278.15 K | 0.000625
in chloroform, 283.15 K | 0.000722
in chloroform, 285.65 K | 0.000775
in chloroform, 288.15 K | 0.000837
in chloroform, 293.15 K | 0.000959
in chloroform, 295.65 K | 0.00102
in chloroform, 298.15 K | 0.00109
in chloroform, 303.15 K | 0.00124
in chloroform, 305.65 K | 0.00131
in chloroform, 308.15 K | 0.0014
in chloroform, 313.15 K | 0.0016
in chloroform, 315.65 K | 0.00169
in chloroform, 318.15 K | 0.00178
in chloroform, 323.15 K | 0.00201
in cyclohexanone, 273.15 K | 0.0295
in cyclohexanone, 275.65 K | 0.0307
in cyclohexanone, 278.15 K | 0.0321
in cyclohexanone, 283.15 K | 0.0352
in cyclohexanone, 285.65 K | 0.0367
in cyclohexanone, 288.15 K | 0.0387
in cyclohexanone, 293.15 K | 0.0422
in cyclohexanone, 295.65 K | 0.044
in cyclohexanone, 298.15 K | 0.0461
in cyclohexanone, 303.15 K | 0.0506
in cyclohexanone, 305.65 K | 0.0527
in cyclohexanone, 308.15 K | 0.0552
in cyclohexanone, 313.15 K | 0.0604
in cyclohexanone, 315.65 K | 0.0629
in cyclohexanone, 318.15 K | 0.0655
in cyclohexanone, 323.15 K | 0.0708
in ethanol, 273.15 K | 0.000713
in ethanol, 275.65 K | 0.000799
in ethanol, 278.15 K | 0.000897
in ethanol, 283.15 K | 0.00112
in ethanol, 285.65 K | 0.00123
in ethanol, 288.15 K | 0.00137
in ethanol, 293.15 K | 0.00166
in ethanol, 295.65 K | 0.00183
in ethanol, 298.15 K | 0.00201
in ethanol, 303.15 K | 0.00244
in ethanol, 305.65 K | 0.00265
in ethanol, 308.15 K | 0.00288
in ethanol, 313.15 K | 0.00347
in ethanol, 315.65 K | 0.00378
in ethanol, 318.15 K | 0.00405
in ethanol, 323.15 K | 0.00479
in ethyl acetate, 273.15 K | 0.00919
in ethyl acetate, 275.65 K | 0.00981
in ethyl acetate, 278.15 K | 0.0104
in ethyl acetate, 283.15 K | 0.0117
in ethyl acetate, 285.65 K | 0.0123
in ethyl acetate, 288.15 K | 0.0131
in ethyl acetate, 293.15 K | 0.0146
in ethyl acetate, 295.65 K | 0.0155
in ethyl acetate, 298.15 K | 0.0163
in ethyl acetate, 303.15 K | 0.0181
in ethyl acetate, 305.65 K | 0.019
in ethyl acetate, 308.15 K | 0.02
in ethyl acetate, 313.15 K | 0.022
in ethyl acetate, 315.65 K | 0.0231
in ethyl acetate, 318.15 K | 0.0243
in ethyl acetate, 323.15 K | 0.0266
in isopropanol, 273.15 K | 0.000586
in isopropanol, 275.65 K | 0.000643
in isopropanol, 278.15 K | 0.000741
in isopropanol, 283.15 K | 0.000937
in isopropanol, 285.65 K | 0.00104
in isopropanol, 288.15 K | 0.00115
in isopropanol, 293.15 K | 0.00143
in isopropanol, 295.65 K | 0.00159
in isopropanol, 298.15 K | 0.00175
in isopropanol, 303.15 K | 0.00214
in isopropanol, 305.65 K | 0.00234
in isopropanol, 308.15 K | 0.00257
in isopropanol, 313.15 K | 0.00311
in isopropanol, 315.65 K | 0.0034
in isopropanol, 318.15 K | 0.0037
in isopropanol, 323.15 K | 0.00443
in methanol, 273.15 K | 0.0014
in methanol, 275.65 K | 0.00151
in methanol, 278.15 K | 0.00167
in methanol, 283.15 K | 0.00196
in methanol, 285.65 K | 0.00212
in methanol, 288.15 K | 0.00233
in methanol, 293.15 K | 0.00272
in methanol, 295.65 K | 0.00295
in methanol, 298.15 K | 0.00318
in methanol, 303.15 K | 0.00372
in methanol, 305.65 K | 0.00397
in methanol, 308.15 K | 0.00427
in methanol, 313.15 K | 0.00493
in methanol, 315.65 K | 0.00527
in methanol, 318.15 K | 0.00566
in methanol, 323.15 K | 0.00646
